How the values were obtained:
[1] = target: Interferon-induced, double-stranded RNA-activated protein kinase (Homo sapiens) (UniProt P19525); assay: Selectivity interaction (KinomeScan (DiscoverX)) EUB0000229b EIF2AK2; details: at 10 µM
[2] = target: Calcium/calmodulin-dependent protein kinase type 1G (Homo sapiens) (UniProt Q96NX5); assay: Selectivity interaction (KinomeScan (DiscoverX)) EUB0001079a CAMK1G; details: at 1 µM
[3] = target: STE20/SPS1-related proline-alanine-rich protein kinase (Homo sapiens) (UniProt Q9UEW8); details: at 10 µM
[4] = target: T1, Ephrin type-A receptor 6 (Homo sapiens) (UniProt Q9UF33); assay: Selectivity interaction (KinomeScan (DiscoverX)) EUB0000655a EPHA6; details: at 10 µM
T1 sequence (whole entry): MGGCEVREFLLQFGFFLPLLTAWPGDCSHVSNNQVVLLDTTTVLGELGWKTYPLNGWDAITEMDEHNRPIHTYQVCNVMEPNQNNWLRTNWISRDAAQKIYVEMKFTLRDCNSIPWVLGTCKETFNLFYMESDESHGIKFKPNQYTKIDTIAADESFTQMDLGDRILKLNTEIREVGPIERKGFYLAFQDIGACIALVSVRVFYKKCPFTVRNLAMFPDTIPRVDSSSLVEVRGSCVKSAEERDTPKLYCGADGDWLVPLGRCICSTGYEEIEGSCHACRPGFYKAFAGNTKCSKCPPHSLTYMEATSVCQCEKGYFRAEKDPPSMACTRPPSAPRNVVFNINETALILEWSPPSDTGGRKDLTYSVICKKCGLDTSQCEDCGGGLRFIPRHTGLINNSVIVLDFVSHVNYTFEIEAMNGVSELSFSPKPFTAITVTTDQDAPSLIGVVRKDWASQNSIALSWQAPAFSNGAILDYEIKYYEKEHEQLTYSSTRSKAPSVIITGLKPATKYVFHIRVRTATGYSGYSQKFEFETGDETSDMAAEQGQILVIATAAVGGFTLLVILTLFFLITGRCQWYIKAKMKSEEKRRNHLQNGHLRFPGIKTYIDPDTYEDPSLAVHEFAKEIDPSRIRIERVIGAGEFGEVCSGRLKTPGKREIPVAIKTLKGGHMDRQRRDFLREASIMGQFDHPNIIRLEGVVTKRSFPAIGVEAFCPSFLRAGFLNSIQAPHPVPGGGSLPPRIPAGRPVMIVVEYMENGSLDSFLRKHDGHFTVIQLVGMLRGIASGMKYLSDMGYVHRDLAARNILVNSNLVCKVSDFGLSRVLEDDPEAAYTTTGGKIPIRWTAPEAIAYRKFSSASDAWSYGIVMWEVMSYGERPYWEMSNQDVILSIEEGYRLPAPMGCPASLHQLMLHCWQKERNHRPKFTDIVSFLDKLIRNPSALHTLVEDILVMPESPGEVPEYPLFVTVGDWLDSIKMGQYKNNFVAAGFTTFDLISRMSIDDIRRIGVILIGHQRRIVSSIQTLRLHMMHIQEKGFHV

[5] = target: T2, Serine/threonine-protein kinase Nek1 (Homo sapiens) (UniProt Q96PY6); assay: Selectivity interaction (Kinase panel (Z-LYTE Assay)) EUB0001632a NEK1; details: at 10 µM
T2 sequence (whole entry): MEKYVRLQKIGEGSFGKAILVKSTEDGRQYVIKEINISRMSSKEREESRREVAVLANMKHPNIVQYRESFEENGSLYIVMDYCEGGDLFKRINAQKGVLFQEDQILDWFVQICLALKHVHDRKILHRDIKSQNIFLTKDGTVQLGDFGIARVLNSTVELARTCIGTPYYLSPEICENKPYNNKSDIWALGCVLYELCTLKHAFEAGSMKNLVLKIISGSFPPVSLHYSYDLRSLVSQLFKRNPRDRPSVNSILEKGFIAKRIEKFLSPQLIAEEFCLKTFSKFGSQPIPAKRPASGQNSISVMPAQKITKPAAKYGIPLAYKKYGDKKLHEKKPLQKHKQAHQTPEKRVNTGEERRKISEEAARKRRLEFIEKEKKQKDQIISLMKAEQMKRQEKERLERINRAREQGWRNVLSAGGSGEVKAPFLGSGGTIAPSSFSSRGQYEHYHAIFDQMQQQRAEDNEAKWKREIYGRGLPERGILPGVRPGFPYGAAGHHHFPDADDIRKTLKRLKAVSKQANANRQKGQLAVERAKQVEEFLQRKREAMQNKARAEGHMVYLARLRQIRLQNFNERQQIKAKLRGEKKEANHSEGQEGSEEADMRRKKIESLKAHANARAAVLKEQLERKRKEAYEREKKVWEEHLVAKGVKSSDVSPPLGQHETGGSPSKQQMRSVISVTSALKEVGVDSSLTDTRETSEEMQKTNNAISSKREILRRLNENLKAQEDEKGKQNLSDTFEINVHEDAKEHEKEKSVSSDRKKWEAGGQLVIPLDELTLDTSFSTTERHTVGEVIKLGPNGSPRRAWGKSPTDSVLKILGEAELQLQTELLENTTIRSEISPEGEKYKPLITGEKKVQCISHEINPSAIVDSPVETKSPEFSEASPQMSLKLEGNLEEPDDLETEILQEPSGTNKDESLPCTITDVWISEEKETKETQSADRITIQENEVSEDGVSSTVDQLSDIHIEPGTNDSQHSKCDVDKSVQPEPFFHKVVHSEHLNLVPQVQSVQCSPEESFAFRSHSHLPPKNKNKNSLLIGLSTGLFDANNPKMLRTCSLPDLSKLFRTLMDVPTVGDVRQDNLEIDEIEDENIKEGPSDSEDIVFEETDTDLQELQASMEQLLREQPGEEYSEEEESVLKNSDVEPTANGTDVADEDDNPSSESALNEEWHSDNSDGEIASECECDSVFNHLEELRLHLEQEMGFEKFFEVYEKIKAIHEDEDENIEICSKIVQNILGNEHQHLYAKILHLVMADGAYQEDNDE

Calcium/calmodulin-dependent protein kinase type 1G (Homo sapiens), sequence (Q96NX5 whole entry): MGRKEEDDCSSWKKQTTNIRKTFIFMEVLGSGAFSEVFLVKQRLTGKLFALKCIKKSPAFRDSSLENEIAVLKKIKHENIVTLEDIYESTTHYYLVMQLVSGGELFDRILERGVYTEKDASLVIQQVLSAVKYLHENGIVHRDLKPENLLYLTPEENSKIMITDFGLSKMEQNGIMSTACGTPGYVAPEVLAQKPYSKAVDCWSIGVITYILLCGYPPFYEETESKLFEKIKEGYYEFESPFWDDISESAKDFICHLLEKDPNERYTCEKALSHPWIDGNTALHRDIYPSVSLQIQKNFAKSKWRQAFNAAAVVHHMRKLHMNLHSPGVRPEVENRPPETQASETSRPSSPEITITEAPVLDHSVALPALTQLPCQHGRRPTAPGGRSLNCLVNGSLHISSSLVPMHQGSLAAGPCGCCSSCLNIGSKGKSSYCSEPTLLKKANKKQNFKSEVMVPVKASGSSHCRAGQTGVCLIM
Interferon-induced, double-stranded RNA-activated protein kinase (Homo sapiens), sequence (P19525 whole entry): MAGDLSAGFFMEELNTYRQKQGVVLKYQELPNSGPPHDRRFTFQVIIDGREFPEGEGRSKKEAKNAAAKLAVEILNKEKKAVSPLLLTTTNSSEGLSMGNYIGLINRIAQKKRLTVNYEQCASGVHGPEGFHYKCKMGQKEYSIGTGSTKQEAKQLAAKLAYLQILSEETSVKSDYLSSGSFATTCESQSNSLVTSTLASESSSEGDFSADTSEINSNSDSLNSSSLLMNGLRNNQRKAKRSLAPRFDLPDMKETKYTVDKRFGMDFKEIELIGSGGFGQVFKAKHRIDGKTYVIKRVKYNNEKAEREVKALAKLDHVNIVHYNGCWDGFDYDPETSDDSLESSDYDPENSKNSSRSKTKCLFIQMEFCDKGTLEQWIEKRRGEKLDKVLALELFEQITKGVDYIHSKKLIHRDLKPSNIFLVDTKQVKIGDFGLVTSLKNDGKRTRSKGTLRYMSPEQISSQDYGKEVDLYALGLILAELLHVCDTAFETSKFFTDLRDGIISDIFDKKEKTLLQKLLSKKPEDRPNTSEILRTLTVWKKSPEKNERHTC

Question: For `COc1cc(N(C)c2ccnc3ccc(C(F)(F)F)cc23)cc(OC)c1OC`, which % binding [1] is on record?
Answer: Its % binding is 58%.

Question: Which % of control [2] does the source give for `Nc1cnc(N2CCc3cc(S(=O)(=O)Nc4c(F)cc(Cl)cc4F)cc(N4CCCC4=O)c32)nc1` [TP-020n] here?
Answer: Its % of control is 100%.

Question: How did the % of control [3] turn out when `Cc1cc([C@@H](C)Nc2ccccc2C(=O)O)c2nc(N3CCOCC3)cc(=O)n2c1` [AZD-6482] was run?
Answer: Its % of control is 100%.

Question: Which % of control [4] does the source give for `CN(C)CCOc1ccc(-c2nc(-c3ccncc3)c(-c3ccc4c(c3)CC/C4=N\O)[nH]2)cc1` here?
Answer: Its % of control is 88%.

Question: `Cn1cc(-n2cnc3c(NCc4nc5cc(Cl)c(Cl)cc5[nH]4)nc(N4CCOCC4)nc32)cn1` was tested. Which % of control [5] did it give?
Answer: The % of control was -1.93%.

Source: ChEMBL document CHEMBL5465560, “Selectivity Literature for EUbOPEN Chemogenomic Library” (2024)
